Laboratory results: PubChem BioAssay AID1259407 (Chemical Carcinogenesis Research Information System (CCRIS), 2018)
The source made the active and inactive calls. The rule behind the calls is not given here.

System: CCRIS mutagenicity, Ames/micronucleus/aberration tests
Assay: CCRIS mutagenicity studies
[1] = Test System: AMES SALMONELLA TYPHIMURIUM, Strain/Indicator: TA98, Metabolic Activation: NONE, Method: PREINCUBATION
[2] = Test System: AMES SALMONELLA TYPHIMURIUM, Strain/Indicator: TA100, Metabolic Activation: NONE, Method: PREINCUBATION
[3] = Test System: AMES SALMONELLA TYPHIMURIUM, Strain/Indicator: TA1535, Metabolic Activation: NONE, Method: PREINCUBATION

With `COCCOCCOC` the mutagenic call (Test System: AMES SALMONELLA TYPHIMURIUM, Strain/Indicator: TA98, Metabolic Activation: HAMSTER, LIVER, S-9, AROCLOR 1254 (10%), Method: PREINCUBATION) was “inactive; negative”, the mutagenic call [1] was “inactive; negative” and the mutagenic call (Test System: AMES SALMONELLA TYPHIMURIUM, Strain/Indicator: TA98, Metabolic Activation: RAT, LIVER, S-9, AROCLOR 1254 (10%), Method: PREINCUBATION) was “inactive; negative”. The mutagenic call (Test System: AMES SALMONELLA TYPHIMURIUM, Strain/Indicator: TA100, Metabolic Activation: HAMSTER, LIVER, S-9, AROCLOR 1254 (10%), Method: PREINCUBATION) was “inactive; negative”, the mutagenic call [2] was “inactive; negative” and the mutagenic call (Test System: AMES SALMONELLA TYPHIMURIUM, Strain/Indicator: TA100, Metabolic Activation: RAT, LIVER, S-9, AROCLOR 1254 (10%), Method: PREINCUBATION) was “inactive; negative”. The mutagenic call (Test System: AMES SALMONELLA TYPHIMURIUM, Strain/Indicator: TA1535, Metabolic Activation: HAMSTER, LIVER, S-9, AROCLOR 1254 (10%), Method: PREINCUBATION) was “inactive; negative”, the mutagenic call [3] was “inactive; negative” and the mutagenic call (Test System: AMES SALMONELLA TYPHIMURIUM, Strain/Indicator: TA1535, Metabolic Activation: RAT, LIVER, S-9, AROCLOR 1254 (10%), Method: PREINCUBATION) was “inactive; negative”. For the same compound, the mutagenic call (Test System: AMES SALMONELLA TYPHIMURIUM, Strain/Indicator: TA1537, Metabolic Activation: HAMSTER, LIVER, S-9, AROCLOR 1254 (10%), Method: PREINCUBATION) was “inactive; negative”, the mutagenic call (Test System: AMES SALMONELLA TYPHIMURIUM, Strain/Indicator: TA1537, Metabolic Activation: NONE, Method: PREINCUBATION) was “inactive; negative” and the mutagenic call (Test System: AMES SALMONELLA TYPHIMURIUM, Strain/Indicator: TA1537, Metabolic Activation: RAT, LIVER, S-9, AROCLOR 1254 (10%), Method: PREINCUBATION) was “inactive; negative”.
`CCCCCCCOc1ccccc1NC(=O)OC(C)CN(CC)CC` (stereo not drawn) was tested, and the mutagenic call (Test System: AMES SALMONELLA TYPHIMURIUM, Strain/Indicator: TA98, Metabolic Activation: MOUSE, LIVER, S-9, AROCLOR 1254, Method: PREINCUBATION) was “inactive; negative”, the mutagenic call [1] was “inactive; negative” and the mutagenic call (Test System: AMES SALMONELLA TYPHIMURIUM, Strain/Indicator: TA100, Metabolic Activation: MOUSE, LIVER, S-9, AROCLOR 1254, Method: PREINCUBATION) was “inactive; negative”. The mutagenic call [2] was “inactive; negative”, the mutagenic call (Test System: AMES SALMONELLA TYPHIMURIUM, Strain/Indicator: TA1535, Metabolic Activation: MOUSE, LIVER, S-9, AROCLOR 1254, Method: PREINCUBATION) was “inactive; negative” and the mutagenic call [3] was “inactive; negative”. For the same compound, the mutagenic call (Test System: AMES SALMONELLA TYPHIMURIUM, Strain/Indicator: TA1538, Metabolic Activation: MOUSE, LIVER, S-9, AROCLOR 1254, Method: PREINCUBATION) was “inactive; negative”, the mutagenic call (Test System: AMES SALMONELLA TYPHIMURIUM, Strain/Indicator: TA1538, Metabolic Activation: NONE, Method: PREINCUBATION) was “inactive; negative” and the mutagenic call (Test System: AMES SALMONELLA TYPHIMURIUM, Strain/Indicator: TA1978, Metabolic Activation: MOUSE, LIVER, S-9, AROCLOR 1254, Method: PREINCUBATION) was “inactive; negative”. The mutagenic call (Test System: AMES SALMONELLA TYPHIMURIUM, Strain/Indicator: TA1978, Metabolic Activation: NONE, Method: PREINCUBATION) was “inactive; negative”, the mutagenic call (Test System: E. COLI, Strain/Indicator: CM611 UVRA/LEXA, Metabolic Activation: MOUSE, LIVER, S-9, AROCLOR 1254, Method: PREINCUBATION) was “inactive; negative” and the mutagenic call (Test System: E. COLI, Strain/Indicator: CM611 UVRA/LEXA, Metabolic Activation: NONE, Method: PREINCUBATION) was “inactive; negative”. The mutagenic call (Test System: E. COLI, Strain/Indicator: WP2, Metabolic Activation: MOUSE, LIVER, S-9, AROCLOR 1254, Method: PREINCUBATION) was “inactive; negative”, the mutagenic call (Test System: E. COLI, Strain/Indicator: WP2, Metabolic Activation: NONE, Method: PREINCUBATION) was “inactive; negative” and the mutagenic call (Test System: E. COLI, Strain/Indicator: WP2 UVRA, Metabolic Activation: MOUSE, LIVER, S-9, AROCLOR 1254, Method: PREINCUBATION) was “inactive; negative”. For the same compound, the mutagenic call (Test System: E. COLI, Strain/Indicator: WP2 UVRA, Metabolic Activation: NONE, Method: PREINCUBATION) was “inactive; negative”, the mutagenic call (Test System: E. COLI, Strain/Indicator: WP67 UVRA/POLA, Metabolic Activation: MOUSE, LIVER, S-9, AROCLOR 1254, Method: PREINCUBATION) was “inactive; negative” and the mutagenic call (Test System: E. COLI, Strain/Indicator: WP67 UVRA/POLA, Metabolic Activation: NONE, Method: PREINCUBATION) was “inactive; negative”.
For `CC(O)CO` (stereo not drawn) (tested in a mixture with another compound), the mutagenic call (Test System: AMES SALMONELLA TYPHIMURIUM, Strain/Indicator: TA102, Metabolic Activation: RAT, LIVER, S-9, PHENOBARBITAL AND 5,6-BENZOFLAVONE, Method: STANDARD PLATE) was “inactive; negative”, the mutagenic call (Test System: AMES SALMONELLA TYPHIMURIUM, Strain/Indicator: TA2638, Metabolic Activation: RAT, LIVER, S-9, PHENOBARBITAL AND 5,6-BENZOFLAVONE, Method: STANDARD PLATE) was “inactive; negative” and the mutagenic call (Test System: E. COLI, Strain/Indicator: WP2 (PKM101), Metabolic Activation: RAT, LIVER, S-9, PHENOBARBITAL AND 5,6-BENZOFLAVONE, Method: STANDARD PLATE) was “active; positive”. For the same compound, the mutagenic call (Test System: E. COLI, Strain/Indicator: WP2 UVRA (PKM101), Metabolic Activation: RAT, LIVER, S-9, PHENOBARBITAL AND 5,6-BENZOFLAVONE, Method: STANDARD PLATE) was “active; positive”.
In the case of `COc1c2ccoc2nc2c(OC)cccc12`, the mutagenic call (Test System: AMES SALMONELLA TYPHIMURIUM, Strain/Indicator: TA98, Metabolic Activation: RAT, LIVER, MICROSOMES, PHENOBARBITAL, Method: STANDARD PLATE) is reported as “active; positive”, the mutagenic call (Test System: AMES SALMONELLA TYPHIMURIUM, Strain/Indicator: TA98, Metabolic Activation: RAT, LIVER, S-9, PHENOBARBITAL, Method: STANDARD PLATE) is reported as “active; positive” and the mutagenic call (Test System: AMES SALMONELLA TYPHIMURIUM, Strain/Indicator: TA100, Metabolic Activation: RAT, LIVER, MICROSOMES, PHENOBARBITAL, Method: STANDARD PLATE) is reported as “active; positive”. The mutagenic call (Test System: AMES SALMONELLA TYPHIMURIUM, Strain/Indicator: TA100, Metabolic Activation: RAT, LIVER, S-9, PHENOBARBITAL, Method: STANDARD PLATE) was “active; positive”, the mutagenic call (Test System: AMES SALMONELLA TYPHIMURIUM, Strain/Indicator: TA1535, Metabolic Activation: RAT, LIVER, MICROSOMES, PHENOBARBITAL, Method: STANDARD PLATE) was “inactive; negative” and the mutagenic call (Test System: AMES SALMONELLA TYPHIMURIUM, Strain/Indicator: TA1538, Metabolic Activation: RAT, LIVER, MICROSOMES, PHENOBARBITAL, Method: STANDARD PLATE) was “active; positive”.
With `Cc1cc(C)nc(SC(=O)OC(C)(C)C)n1` the mutagenic call (Test System: AMES SALMONELLA TYPHIMURIUM, Strain/Indicator: TA98, Metabolic Activation: NONE, Method: STANDARD PLATE) was “inactive; negative”, the mutagenic call (Test System: AMES SALMONELLA TYPHIMURIUM, Strain/Indicator: TA98, Metabolic Activation: RAT, LIVER, S-9, AROCLOR 1254, Method: STANDARD PLATE) was “inactive; negative” and the mutagenic call (Test System: AMES SALMONELLA TYPHIMURIUM, Strain/Indicator: TA100, Metabolic Activation: NONE, Method: STANDARD PLATE) was “inactive; negative”. For the same compound, the mutagenic call (Test System: AMES SALMONELLA TYPHIMURIUM, Strain/Indicator: TA100, Metabolic Activation: RAT, LIVER, S-9, AROCLOR 1254, Method: STANDARD PLATE) was “inactive; negative”, the mutagenic call (Test System: AMES SALMONELLA TYPHIMURIUM, Strain/Indicator: TA1535, Metabolic Activation: NONE, Method: STANDARD PLATE) was “inactive; negative” and the mutagenic call (Test System: AMES SALMONELLA TYPHIMURIUM, Strain/Indicator: TA1535, Metabolic Activation: RAT, LIVER, S-9, AROCLOR 1254, Method: STANDARD PLATE) was “inactive; negative”. The mutagenic call (Test System: AMES SALMONELLA TYPHIMURIUM, Strain/Indicator: TA1537, Metabolic Activation: NONE, Method: STANDARD PLATE) was “inactive; negative” and the mutagenic call (Test System: AMES SALMONELLA TYPHIMURIUM, Strain/Indicator: TA1537, Metabolic Activation: RAT, LIVER, S-9, AROCLOR 1254, Method: STANDARD PLATE) was “inactive; negative”.
